Measured values: patent US20020183362A1, “2-Fluorobenzenesulfonyl compounds for the treatment of inflammation” (Pharmacia Corporation, priority 2000, published 2002)

Key:
Human COX-1 [1] = target: T1, Human COX-1 (Homo sapiens, UniProt P23219); test: Assay for COX-1 and COX-2 activity (PGE2 ELISA, recombinant enzyme), COX-1; assay type: biochemical; details: Table I; pre-incubated 10-20 minutes, arachidonic acid 10 μM, stopped after ten minutes, pH 8.0
T1 construct: A 2.0 kb fragment containing the coding region of either human or murine COX-1 or human or murine COX-2; made in house; host or cells: SF9 insect cells (baculovirus, transfer vector pVL1393)
Description: (§1) Recombinant baculoviruses were isolated by transfecting 4 μg of baculovirus transfer vector DNA into SF9 insect cells (2×10^8) along with 200 ng of linearized baculovirus plasmid DNA by the calcium phosphate method. See M. D. Summers and G. E. Smith, A Manual of Methods for Baculovirus Vectors and Insect Cell Culture Procedures, Texas Agric. Exp. Station Bull. […] Recombinant viruses were purified by three rounds of plaque purification and high titer (10^7-10^8 pfu/mL) stocks of virus were prepared. For large scale production, SF9 insect cells were infected in 10 liter fermentors (0.5×10^6/mL) with the recombinant baculovirus stock such that the multiplicity of infection was 0.1. After 72 hours the cells were centrifuged and the cell pellet homogenized in Tris/Sucrose (50 mM: 25%, pH 8.0) containing 1% 3-[(3-cholamidopropyl)dimethylammonio]-1-propanesulfonate (CHAPS). The homogenate was centrifuged at 10,000×G for 30 minutes, and the resultant supernatant was stored at −80° C. before being assayed for COX activity.
COX activity was assayed as PGE2 formed/μg protein/time using an ELISA to detect the prostaglandin released. CHAPS-solubilized insect cell membranes containing the appropriate COX enzyme were incubated in a potassium phosphate buffer (50 mM, pH 8.0) containing epinephrine, phenol, and heme with the addition of arachidonic acid (10 μM). Compounds were pre-incubated with the enzyme for 10-20 minutes prior to the addition of arachidonic acid. […] The PGE2 formed was measured by standard ELISA technology (Cayman Chemical).

Human COX-2 [2] = target: T2, Human COX-2 (Homo sapiens, UniProt P35354); test: Fast assay for COX-1 and COX-2 activity (PGE2 ELISA), COX-2; assay type: biochemical; details: Table II, pre-incubated 10 minutes at 25° C., arachidonic acid 10 μM, stopped after two minutes, pH 7.5
T2 construct: A 2.0 kb fragment containing the coding region of either human or murine COX-1 or human or murine COX-2; made in house; host or cells: SF9 insect cells (baculovirus, transfer vector pVL1393)
T2 sequence (P35354 18-604): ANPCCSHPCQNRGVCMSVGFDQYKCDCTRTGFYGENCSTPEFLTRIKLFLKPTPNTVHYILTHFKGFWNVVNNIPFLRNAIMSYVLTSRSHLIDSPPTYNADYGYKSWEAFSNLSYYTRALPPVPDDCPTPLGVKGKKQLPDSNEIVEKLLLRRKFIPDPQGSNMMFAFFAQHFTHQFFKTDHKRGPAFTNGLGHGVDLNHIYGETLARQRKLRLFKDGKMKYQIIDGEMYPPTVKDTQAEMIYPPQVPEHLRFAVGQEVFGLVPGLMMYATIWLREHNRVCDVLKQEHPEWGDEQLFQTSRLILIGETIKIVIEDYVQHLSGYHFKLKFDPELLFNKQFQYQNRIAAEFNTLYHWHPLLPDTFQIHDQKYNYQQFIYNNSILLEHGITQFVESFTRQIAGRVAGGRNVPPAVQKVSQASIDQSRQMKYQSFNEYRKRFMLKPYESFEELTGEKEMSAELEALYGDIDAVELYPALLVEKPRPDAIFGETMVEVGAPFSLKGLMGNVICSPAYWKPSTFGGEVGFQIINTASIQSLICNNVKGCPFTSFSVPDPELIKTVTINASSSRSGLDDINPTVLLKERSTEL
Description: (§2) Recombinant COX-1 and COX-2 were prepared as described by Gierse et al, [[…]., 305, 479-84 (1995)]. A 2.0 kb fragment containing the coding region of either human or murine COX-1 or human or murine COX-2 was cloned into a BamH1 site of the baculovirus transfer vector pVL1393 (Invitrogen) to generate the baculovirus transfer vectors for COX-1 and COX-2 in a manner similar to the method of D. R. O'Reilly et al (Baculovirus Expression Vectors: A Laboratory Manual (1992)). Recombinant baculoviruses were isolated by transfecting 4 μg of baculovirus transfer vector DNA into SF9 insect cells (2×10^8) along with 200 ng of linearized baculovirus plasmid DNA by the calcium phosphate method. See M. D. Summers and G. E. Smith, A Manual of Methods for Baculovirus Vectors and Insect Cell Culture Procedures, Texas Agric. Exp. Station Bull. 1555 (1987). Recombinant viruses were purified by three rounds of plaque purification and high titer (10^7-10^8 pfu/mL) stocks of virus were prepared. For large scale production, SF9 insect cells were infected in 10 liter fermentors (0.5×10^6/mL) with the recombinant baculovirus stock such that the multiplicity of infection was 0.1. After 72 hours the cells were centrifuged and the cell pellet homogenized in Tris/Sucrose (50 mM: 25%, pH 8.0) containing 1% 3-[(3-cholamidopropyl)dimethylammonio]-1-propanesulfonate (CHAPS). The homogenate was centrifuged at 10,000×G for 30 minutes, and the resultant supernatant was stored at −80° C. before being assayed for COX activity.
(§3) COX activity was assayed as PGE2 formed/μg protein/time using an ELISA to detect the prostaglandin released. CHAPS-solubilized insect cell membranes containing the appropriate COX enzyme were incubated in a potassium phosphate buffer (0.05 M Potassium phosphate, pH 7.5, 2 μM phenol, 1 μM heme, 300 μM epinephrine) with the addition of 20 μl of 100 μM arachidonic acid (10 μM). Compounds were pre-incubated with the enzyme for 10 minutes at 25° C. prior to the addition of arachidonic acid. Any reaction between the arachidonic acid and the enzyme was stopped after two minutes at 37° C./room temperature by transferring 40 μl of reaction mix into 160 μl ELISA buffer and 25 μM indomethacin. The PGE2 formed was measured by standard ELISA technology (Cayman Chemical).

Human COX-2 [3] = target: T2, Human COX-2; test: Assay for COX-1 and COX-2 activity (PGE2 ELISA, recombinant enzyme), COX-2; assay type: biochemical; details: Table I; pre-incubated 10-20 minutes, arachidonic acid 10 μM, stopped after ten minutes, pH 8.0
Description: The COX-2 inhibition activity of the compounds of this invention illustrated in the Examples was determined by the following methods.
as §2
COX activity was assayed as PGE2 formed/μg protein/time using an ELISA to detect the prostaglandin released. CHAPS-solubilized insect cell membranes containing the appropriate COX enzyme were incubated in a potassium phosphate buffer (50 mM, pH 8.0) containing epinephrine, phenol, and heme with the addition of arachidonic acid (10 μM). Compounds were pre-incubated with the enzyme for 10-20 minutes prior to the addition of arachidonic acid. Any reaction between the arachidonic acid and the enzyme was stopped after ten minutes at 37° C./room temperature by transferring 40 μl of reaction mix into […] and 25 μM indomethacin. The PGE2 formed was measured by standard ELISA technology (Cayman Chemical).

Human COX-1 [4] = target: T1, Human COX-1; test: Fast assay for COX-1 and COX-2 activity (PGE2 ELISA), COX-1; assay type: biochemical; details: Table II, pre-incubated 10 minutes at 25° C., arachidonic acid 10 μM, stopped after two minutes, pH 7.5
Description: as §1
as §3, with “Any reaction between the arachidonic acid and the enzyme was stopped after two minutes at 37° C./room temperature by transferring 40 μl of reaction mix into 160 μl ELISA buffer and 25 μM indomethacin.” left out

T1 sequence (P23219 24-599): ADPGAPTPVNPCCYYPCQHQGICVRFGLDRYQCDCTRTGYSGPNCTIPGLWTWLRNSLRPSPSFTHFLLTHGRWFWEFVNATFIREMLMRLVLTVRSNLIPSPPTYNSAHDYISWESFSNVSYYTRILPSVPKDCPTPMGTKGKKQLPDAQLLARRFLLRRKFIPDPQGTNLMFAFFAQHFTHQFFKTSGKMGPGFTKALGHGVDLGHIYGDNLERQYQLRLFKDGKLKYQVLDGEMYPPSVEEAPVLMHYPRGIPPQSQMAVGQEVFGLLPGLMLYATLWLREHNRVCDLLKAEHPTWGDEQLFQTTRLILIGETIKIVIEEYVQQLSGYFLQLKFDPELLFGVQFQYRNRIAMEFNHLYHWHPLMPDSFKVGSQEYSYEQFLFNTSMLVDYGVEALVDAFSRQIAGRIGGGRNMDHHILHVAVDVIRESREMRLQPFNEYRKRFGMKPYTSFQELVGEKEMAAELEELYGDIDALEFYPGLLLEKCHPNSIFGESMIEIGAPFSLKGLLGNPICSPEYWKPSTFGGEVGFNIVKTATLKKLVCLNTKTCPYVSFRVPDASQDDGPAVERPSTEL

Row | Structure (SMILES) | IC50 (Human COX-1 [1]) [nM] | IC50 (Human COX-2 [2]) [nM] | IC50 (Human COX-2 [3]) [nM] | IC50 (Human COX-1 [4]) [nM] | melting point [°C]
1 | CS(=O)(=O)c1ccc(-c2cc(C(F)(F)F)nn2-c2ccc(C#N)cc2)cc1F [Example 16, 4-[5-[3-Fluoro-4-(methylsulfonyl)Phenyl]-3-(trifluoromethyl)-1H-Pyrazol-1-yl]benzonitrile] | > 100000 | 870 | 250 | > 100000 | 152 to 153
2 | Cc1cccc(-n2nc(C(F)(F)F)cc2-c2ccc(S(C)(=O)=O)c(F)c2)c1 [Example 17, 5-[3-Fluoro-4-(methylsulfonyl)phenyl]-1-(3-methylphenyl)-3-(trifluoromethyl)-1H-pyrazole] | > 100000 | 27 | 1050 | 4360 | 129 to 130
3 | CS(=O)(=O)c1ccc(C2=C(c3ccccc3)C(=O)OC2)cc1F [Example 24] | > 100000 | 3730 | 15900 | > 100000 | 161 to 162
4 | CS(=O)(=O)c1ccc(-c2cc(C(F)(F)F)nn2-c2ccc(F)cc2)cc1F [Example 11, 5-[3-Fluoro-4-(methylsulfonyl)phenyl]-1-(4-fluorophenyl)-3-(trifluoromethyl)-1H-pyrazole] | > 100000 | 130 | 150 | 22600 | 228 to 229
5 | NS(=O)(=O)c1ccc(-c2cscc2-c2ccccc2)cc1F [Example 1, 2-Fluoro-4-(4-phenyl-3-thienyl)benzenesulfonamide] | 37900 | 13 | 11 | 29400 | 170.9 to 171
6 | CS(=O)(=O)c1ccc(-c2cc(C(F)(F)F)nn2-c2ccc(OC(F)(F)F)cc2)cc1F [Example 14, 5-[3-Fluoro-4-(methylsulfonyl)phenyl]-3-(trifluoromethyl)-1-[4-(trifluoromethoxy)phenyl]-1H-pyrazole] | > 100000 | 64 | 62 | > 100000 | 110 to 112
7 | CS(=O)(=O)c1ccc(-c2cc(C(F)(F)F)nn2C2CCCCC2)cc1F [Example 12, 1-Cyclohexyl-5-[3-fluoro-4-(methylsulfonyl)phenyl]-3-(trifluoromethyl)-1H-pyrazole] | > 100000 | 140 | 180 | > 100000 | 228 to 229
8 | CS(=O)(=O)c1ccc(-c2cscc2-c2ccccc2)cc1F [Example 2, 3-[3-Fluoro-4-(methylsulfonyl)phenyl]-4-phenylthiophene] | > 100000 | 43 | 51 | > 100000 | 140 to 141
9 | Cc1ccc(-n2nc(C(F)(F)F)cc2-c2ccc(S(C)(=O)=O)c(F)c2)cc1Cl [Example 15, 1-(3-Chloro-4-methylphenyl)-5-[3-fluoro-4-(methylsulfonyl)phenyl]-3-(trifluoromethyl)-1H-pyrazole] | > 100000 | 15 | 16 | 2360 | 144 to 145
10 | Cc1onc(-c2ccc(F)cc2)c1-c1ccc(S(N)(=O)=O)c(F)c1 [Example 22, 2-Fluoro-4-[3-(4-fluorophenyl)-5-methyl-4-isoxazolyl]-benzenesulfonamide] | > 100000 | 5 | 15 | > 100000 | 176 to 177
11 | CS(=O)(=O)c1ccc(-c2cc(C(F)(F)F)nn2-c2cccc(C(F)(F)F)c2)cc1F [Example 13, 5-[3-Fluoro-4-(methylsulfonyl)phenyl]-3-(trifluoromethyl)-1-[3-(trifluoromethyl)phenyl]-1H-pyrazole] | > 100000 | 150 | 180 | > 100000 | –
12 | NS(=O)(=O)c1ccc(-n2nc(C(F)(F)F)cc2-c2ccc(F)cc2)cc1F [Example 8, 2-Fluoro-4-[5-(4-fluorophenyl)-3-(trifluoromethyl)-1H-pyrazol-1-yl]benzenesulfonamide] | 56800 | 21 | 20 | 41500 | –
13 | CS(=O)(=O)c1ccc(-c2cc(C(F)F)nn2-c2ccc(F)cc2)cc1F [Example 18, 3-(Difluoromethyl)-5-[3-fluoro-4-(methylsulfonyl)phenyl]-1-(4-fluorophenyl)-1H-pyrazole] | > 100000 | 310 | 320 | > 100000 | –
14 | NS(=O)(=O)c1ccc(-n2nc(C(F)(F)F)cc2-c2ccc(Cl)cc2)cc1F [Example 5, 4-[5-(4-Chlorophenyl)-3-trifluoromethyl-1H-pyrazol-1-yl]-2-fluorobenzenesulfonamide] | 45900 | 4 | 5 | 19900 | –
15 | Cc1ccc(-c2cc(C(F)F)nn2-c2ccc(S(N)(=O)=O)c(F)c2)cc1Cl [Example 3, 4-[5-(3-chloro-4-methylphenyl)-3-(difluoromethyl)-1H-pyrazol-1-yl]-2-fluorobenzenesulfonamide] | 16300 | 4 | 5 | 26900 | 160 to 161
